Data from the NIST ThermoML archive (doi:10.1016/j.jct.2009.07.018).

What was measured:
[1] = Maximal bubble pressure
[2] = xn = mol fraction of the nth substance listed; conditions: Maximal bubble pressure

CCCCCCCCCC [decane]
[1]
Conditions	surface tension liquid-gas [mN/m]
293.15 K	23.83
303.15 K	22.91
313.15 K	21.91
323.15 K	21.07
333.15 K	20.15
343.15 K	19.23

CCCCCCC [heptane]
[1]
Conditions	surface tension liquid-gas [mN/m]
283.15 K	21.11
293.15 K	20.12
303.15 K	19.13
313.15 K	18.11
323.15 K	17.15

CCCCC [pentane]
[1]
Conditions	surface tension liquid-gas [mN/m]
293.15 K	15.94
298.15 K	15.3
305.15 K	14.36
318.15 K	12.6
323.15 K	11.95

CCCCC [pentane] + CCCCCCC
surface tension liquid-gas [mN/m], [2]
Conditions	x1 = 0.165	x1 = 0.308	x1 = 0.432	x1 = 0.542	x1 = 0.64	x1 = 0.727	x1 = 0.877	x1 = 0.971
293.15 K	19.62	19.11	18.6	18.15	17.71	17.29	16.65	16.08
298.15 K	18.98	18.5	17.9	17.35	16.9	16.48	15.85	15.29
305.15 K	18.16	17.64	17.13	16.64	16.17	15.74	14.97	14.49
318.15 K	16.91	16.24	15.66	15.1	14.57	14.08	13.23	12.7
323.15 K	16.33	15.55	14.88	14.4	13.93	13.41	12.6	12.12

O [water]
[1]
Conditions	surface tension liquid-gas [mN/m]
293.15 K	72.84
298.15 K	72.03
303.15 K	71.24
308.15 K	70.44
313.15 K	69.61
323.15 K	67.96
